Assays:
[1] = tested on: Amaranthus retroflexus; assay: Herbicidal activity, spray above weed before planting, metalaxyl-treated stem cutting (Example 13); assay type: in vivo; conditions: sprayed above weed, 3 cm stem cutting treated with metalaxyl or metalaxyl-M planted one week after treatment, four weeks after treatment
Description: A 30 cm to 40 cm stem cutting of sugar cane is placed on a wet soil, and germination is stimulated. The stem cutting from which a bud has grown to about 1 cm is selected, and the length of the stem cutting is adjusted to be 3 cm so that the stem cutting has one node. Metalaxyl or metalaxyl-M is adhered to the stem cutting.

[2] = tested on: sugar cane; assay: Phytotoxicity on sugar cane, spray above weed one week before planting (Example 5); conditions: Example 5; sprayed above weed three weeks after seeding; 3 cm stem cutting planted one week after treatment; four weeks after treatment
Experimental: (§1) The “phytotoxicity” evaluated herein is the damage characteristic determined to be due to a treated compound, and is clearly discriminated from the damage characteristic caused by a harmful animal or plant disease.
(§2) A soil is packed into a plastic pot, and seeds of Amaranthus retroflexus are seeded thereon. Thereafter, the pot is placed in a greenhouse, and the weed is grown.
(§3) A 30 cm to 40 cm stem cutting of sugar cane is placed on a wet soil, and germination is stimulated. The stem cutting from which a bud has been grown to about 1 cm is selected, and the length of the stem cutting is adjusted to be 3 cm so that the stem cutting has one node.
(§4) The pot for a test is placed in a greenhouse.

[3] = tested on: Amaranthus retroflexus; assay: Herbicidal activity, soil surface spray after planting (Example 4); assay type: in vivo; conditions: 3 cm stem cutting, one node, soil surface spray on date of planting, four weeks after treatment
Experimental: A 30 cm to 40 cm stem cutting of sugar cane is placed on a wet soil, and germination is stimulated. The stem cutting from which a bud has grown to about 1 cm is selected, and the length of the stem cutting is adjusted to be 3 cm so that the stem cutting has one node. A soil is packed into a plastic pot, and seeds of Amaranthus retroflexus are seeded thereon. The stem cutting of sugar cane is planted in the soil packed in the pot at a depth of 2 cm. […] Thereafter, the pot for a test is placed in a greenhouse.

[4] = tested on: sugar cane; assay: Phytotoxicity on sugar cane, soil surface spray after planting (Example 4); conditions: Example 4; 3 cm stem cutting, one node; soil surface spray on date of planting; four weeks after treatment
Description: as §1
as §3, with “has” for “has been”, “node. A soil is packed into a plastic pot, and seeds of Amaranthus retroflexus are seeded thereon. The stem cutting of sugar cane is planted in the soil packed in the pot at a depth of 2 cm. […] Thereafter, the pot for a test is placed in a greenhouse.” for “node.”

[5] = tested on: Amaranthus retroflexus; assay: Herbicidal activity, spray above weed before planting, insecticide-treated stem cutting (Example 7); assay type: in vivo; conditions: sprayed above weed, 3 cm stem cutting treated with clothianidin, thiamethoxiam, imidacloprid, dinotefuran, nitenpyram, acetamiprid or thiacloprid planted one week after treatment, four weeks after treatment
Description: A 30 cm to 40 cm stem cutting of sugar cane is placed on a wet soil, and germination is stimulated. The stem cutting from which a bud has grown to about 1 cm is selected, and the length of the stem cutting is adjusted to be 3 cm so that the stem cutting has one node. Clothianidin, thiamethoxiam, imidacloprid, dinotefuran, nitenpyram, acetamiprid or thiacloprid is adhered to the stem cutting.

[6] = tested on: Amaranthus retroflexus; assay: Herbicidal activity, soil surface spray, azole-fungicide-treated stem cutting (Example 10); assay type: in vivo; conditions: 3 cm stem cutting treated with azaconazole, bitertanol or another listed azole-type fungicide, four weeks after treatment
Description: A 30 to 40 cm stem cutting of sugar cane is placed on a wet soil, and germination is stimulated. The stem cutting from which a bud has grown to about 1 cm is selected, and the length of the stem cutting is adjusted to be 3 cm so that the stem cutting has one node. Azaconazole, bitertanol, bromoconazole, cyproconazole, difenoconazole, diniconazole, epoxyconazole, fenbuconazole, fluquinconazole, flusilazole, flutriafol, hexaconazole, imibenconazole, ipconazole, metconazole, myclobutanil, penconazole, propiconazole, prothioconazole, simeconazole, tebuconazole, tetraconazole, triadimenol, triticonazole, fenarimol, nuarimol, pyrifenox, imazalil, oxpoconazole fumarate, pefurazoate, procloraz or triflumizole is adhered to the stem cutting. A soil is packed into a plastic pot, and seeds of Amaranthus retroflexus are seeded thereon. The stem cutting of sugar cane treated with azaconazole, bitertanol, bromoconazole, cyproconazole, difenoconazole, diniconazole, epoxyconazole, fenbuconazole, fluquinconazole, flusilazole, flutriafol, hexaconazole, imibenconazole, ipconazole, metconazole, myclobutanil, penconazole, propiconazole, prothioconazole, simeconazole, tebuconazole, tetraconazole, triadimenol, triticonazole, fenarimol, nuarimol, pyrifenox, imazalil, oxpoconazole fumarate, pefurazoate, procloraz or triflumizole is planted in the soil packed into the pot at a depth of 2 cm. […] Thereafter, the pot for a test is placed in a greenhouse.

[7] = tested on: Amaranthus retroflexus; assay: Herbicidal activity, soil surface spray, strobilurin-treated stem cutting (Example 8); assay type: in vivo; conditions: 3 cm stem cutting treated with kresoxim-methyl, azoxystrobin or another listed strobilurin fungicide, four weeks after treatment
Description: A 30 cm to 40 cm stem cutting of sugar cane is placed on a wet soil, and germination is stimulated. The stem cutting from which a bud has grown to about 1 cm is selected, and the length of the stem cutting is adjusted to be 3 cm so that the stem cutting has one node. Kresoxim-methyl, azoxystrobin, trifloxystrobin, fluoxastrobin, picoxystrobin, pyraclostrobin, dimoxystrobin, pyribencarb, metominostrobin, orysastrobin, enestrobin, pyraoxystrobin or pyrametostrobin is adhered to the stem cutting. A soil is packed into a plastic pot, and seeds of Amaranthus retroflexus are seeded thereon. The stem cutting of sugar cane treated with kresoxim-methyl, azoxystrobin, trifloxystrobin, fluoxastrobin, picoxystrobin, pyraclostrobin, dimoxystrobin, pyribencarb, metominostrobin, orysastrobin, enestrobin, pyraoxystrobin or pyrametostrobin is planted in the soil packed into the pot at a depth of 2 cm. […] Thereafter, the pot for a test is placed in a greenhouse.

[8] = tested on: Amaranthus retroflexus; assay: Herbicidal activity, spray above weed one week before planting (Example 5); assay type: in vivo; conditions: sprayed above weed three weeks after seeding, 3 cm stem cutting planted one week after treatment, four weeks after treatment
[9] = tested on: Amaranthus retroflexus; assay: Herbicidal activity, spray above weed before planting, strobilurin-treated stem cutting (Example 9); assay type: in vivo; conditions: sprayed above weed, 3 cm stem cutting treated with kresoxim-methyl, azoxystrobin or another listed strobilurin fungicide planted one week after treatment, four weeks after treatment
Description: A 30 cm to 40 cm stem cutting of sugar cane is placed on a wet soil, and germination is stimulated. The stem cutting from which a bud has grown to about 1 cm is selected, and the length of the stem cutting is adjusted to be 3 cm so that the stem cutting has one node. Kresoxim-methyl, azoxystrobin, trifloxystrobin, fluoxastrobin, picoxystrobin, pyraclostrobin, dimoxystrobin, pyribencarb, metominostrobin, orysastrobin, enestrobin, pyraoxystrobin or pyrametostrobin is adhered to the stem cutting.

[10] = tested on: sugar cane; assay: Phytotoxicity on sugar cane, spray above weed before planting, metalaxyl-treated stem cutting (Example 13); conditions: Example 13; sprayed above weed; 3 cm stem cutting treated with metalaxyl or metalaxyl-M planted one week after treatment; four weeks after treatment
Experimental: as §1
A soil is packed into a plastic pot, and seeds of Amaranthus retroflexus are seeded thereon. Thereafter, a pot is placed in a greenhouse, and the weed is grown.
as §3, with “has” for “has been”, “node. Metalaxyl or metalaxyl-M is adhered to the stem cutting.” for “node.”
as §4

[11] = tested on: sugar cane; assay: Phytotoxicity on sugar cane, spray from upper side of pot, sugar cane at 4 to 5 leaves (Example 3); assay type: in vivo; conditions: 70 g (active ingredient)/ha, one week after treatment, scale 0 to 100
Experimental: A sugar cane, a foliage of which had grown to about 4 to 5 leaves, was selected, and the length of the stem cutting was adjusted to be 8 cm or 25 cm. The 8 cm stem cutting had one node, and the 25 cm stem cutting had two nodes. A soil was packed into a 32 cm×25 cm×11 cm plastic pot, and seeds of Amaranthus retroflexus were seeded thereon. […] On the date when the stem cutting was planted, and after planting of the stem cutting, a water-diluted liquid of saflufenacil (140 ppm) was uniformly sprayed with a sprayer from an upper side of the pot at an amount described in Table 3. The water-diluted liquid of saflufenacil was prepared by dissolving a predetermined amount of saflufenacil in acetone containing 2% (w/v) Tween 20, and diluting this solution with water so that the acetone concentration became 10% by volume. Thereafter, the pot for a test was placed in a greenhouse. One week after treatment with saflufenacil, phytotoxicity on sugar cane was determined and, four weeks after treatment with saflufenacil, the herbicidal activity against Amaranthus retroflexus was determined.

[12] = tested on: sugar cane; assay: Phytotoxicity on sugar cane, spray above weed before planting, strobilurin-treated stem cutting (Example 9); conditions: Example 9; sprayed above weed; 3 cm stem cutting treated with kresoxim-methyl, azoxystrobin or another listed strobilurin fungicide planted one week after treatment; four weeks after treatment
Experimental: as §1, §2
as §3, with “has” for “has been”, “node. Kresoxim-methyl, azoxystrobin, trifloxystrobin, fluoxastrobin, picoxystrobin, pyraclostrobin, dimoxystrobin, pyribencarb, metominostrobin, orysastrobin, enestrobin, pyraoxystrobin or pyrametostrobin is adhered to the stem cutting.” for “node.”
as §4

Compound: CC(C)N(C)S(=O)(=O)NC(=O)c1cc(-n2c(=O)cc(C(F)(F)F)n(C)c2=O)c(F)cc1Cl [Saflufenacil, saflufenacil]
- herbicidal activity against Amaranthus retroflexus [1]: the controlling effect on a weed can be confirmed
- phytotoxicity [2]: significant phytotoxicity on sugar cane is not found
- herbicidal activity against Amaranthus retroflexus [3]: the controlling effect on a weed can be confirmed
- phytotoxicity [4]: significant phytotoxicity on sugar cane is not observed
- herbicidal activity against Amaranthus retroflexus [5]: the controlling effect on a weed can be confirmed
- herbicidal activity against Amaranthus retroflexus [6]: the control effect on a weed can be confirmed
- herbicidal activity against Amaranthus retroflexus [7]: the controlling effect on a weed can be confirmed
- herbicidal activity against Amaranthus retroflexus [8]: the controlling effect on a weed can be confirmed
- herbicidal activity against Amaranthus retroflexus [9]: the controlling effect on a weed can be confirmed
- phytotoxicity [10]: significant phytotoxicity on sugar cane is not observed
- Phytotoxicity on sugar cane ([11]; stem cutting 8 cm (one node)): 0
- Phytotoxicity on sugar cane ([11]; stem cutting 25 cm (two nodes)): 15
- phytotoxicity [12]: significant phytotoxicity on sugar cane is not observed
